The record followed here is patent US20220009894A1, “1,2,3,4-TETRAHYDROQUINOXALINE DERIVATIVE, PREPARATION METHOD THEREFOR AND APPLICATION THEREOF” (Abbisko Therapeutics Co., Ltd., priority 2019, published 2022).

One assay has as its target T1, RORγt-LBD (Homo sapiens, UniProt P51449).
T1 sequence (P51449 269-508 limits assumed): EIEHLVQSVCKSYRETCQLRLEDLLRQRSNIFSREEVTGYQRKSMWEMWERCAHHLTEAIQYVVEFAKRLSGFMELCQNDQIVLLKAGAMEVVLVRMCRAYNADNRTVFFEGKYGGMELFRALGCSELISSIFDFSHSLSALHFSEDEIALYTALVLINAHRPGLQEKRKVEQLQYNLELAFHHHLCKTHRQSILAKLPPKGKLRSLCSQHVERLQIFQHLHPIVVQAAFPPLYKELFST
Kind of assay: Time-resolved fluorescence resonance energy-transfer assay (TR-FRET), co-activator peptide recruitment. The format is biochemical. Also on record: TR-FRET Biochemical Amax: unit not given here. To be noted: for EC50: His-RORγt-LBD 30 nM, SRC peptide 500 nM, agonistic activity, averages of one or more measurements, read-out: TR-FRET Biochemical EC50/; for TR-FRET Biochemical Amax: upper activation limit, His-RORγt-LBD, SRC peptide. Put shortly: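 This agonist-mode TR-FRET used 30 nM His-tagged RORγt-LBD, 500 nM biotinylated SRC peptide, 0.25 nM Eu-anti-His and 5 nM APC-streptavidin in pH 7.0 Tris/KCl buffer with DTT and Triton. A 7-concentration, 5-fold compound series was incubated at 4 °C overnight plus 1 h at room temperature, and the 665/615 nm signal was read.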

For the next assay, the target named is T2, RORγt (Homo sapiens, UniProt P51449).
T2 construct: The plasmid of pFN26A-RORγt-LBD and pG14.35 (Promega, Cat. No. E1370) were co-transfected into HEK 293 cells; expressed in transfected cells; host or cells: HEK 293 cells (Cat. No. GNHu18)
T2 sequence (P51449 269-508 limits assumed): T1 sequence (P51449 269-508 limits assumed)
Kind of assay: RORγt cellular reporter gene detection assay.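 On Cellular Reporter Assay Amax: Ursolic Acid added as 5 µL of 20 µM medium per well.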 It counts as cell-based. To be noted: 24 hrs; for EC50: HEK 293 cells co-transfected with pFN26A-RORγt-LBD and pG14.35, in presence of antagonist Ursolic acid, top concentration 50 μM; for Cellular Reporter Assay Amax: upper activation limit, HEK 293 cells, in presence of antagonist Ursolic acid. The method, boiled down: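 Compounds, titrated 4-fold from a 50 μM top concentration, were added with Ursolic acid to HEK293 cells carrying a RORγt-LBD plasmid and a reporter plasmid. After 24 h at 37° C, dual firefly/Renilla luciferase readout; four-parameter curves gave EC50 and maximal activation (Amax).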

Take `O=S(=O)(c1cccc(C(F)(F)F)c1)N1C[C@@H]2CC(F)CCN2c2ccc(-c3cc(F)cc(OC(F)F)c3)cc21` (stereo partly drawn) [Example 103, (6aS)-3-(3-(difluoromethoxy)-5-fluorophenyl)-8-fluoro-5-((3-(trifluoromethyl)phenyl)sulfonyl)-6,6a,7,8,9,10-hexahydro-5H-pyrido[1,2-a]quinoxaline]: at RORγt-LBD, the EC50 amounted to 41.1 nM and the “TR-FRET Biochemical Amax” value was found to be 0.49. Also, on RORγt, the EC50 was 1300 nM and the “Cellular Reporter Assay Amax” value came to 2.7.

As to `C/C(=C\c1ccc2c(c1)N(S(=O)(=O)c1cccc(C(F)(F)F)c1)C[C@@H]1C[C@](C)(OCCC(=O)O)CCN21)c1c(F)cccc1Cl` [Example 121], on RORγt-LBD, the EC50 is 12.1 nM and the “TR-FRET Biochemical Amax” value is recorded as 0.98. Further, on RORγt, the EC50 was 378 nM and the “Cellular Reporter Assay Amax” value is on record as 2.4.

Regarding `CS(=O)(=O)N1CCN2c3ccc(-c4cc(F)cc(OC(F)F)c4)cc3N(S(=O)(=O)c3cccc(C(F)(F)F)c3)C[C@@H]2C1` [Example 8, (S)-8-(3-(difluoromethoxy)-5-fluorophenyl)-3-(methylsulfonyl)-6-((3-(trifluoromethyl)phenyl)sulfonyl)-2,3,4,4a,5,6-hexahydro-1H-pyrazino[1,2-a]quinoxaline], at RORγt-LBD, the EC50 was 13.3 nM and the “TR-FRET Biochemical Amax” value is given as 1.22. Further, on RORγt, the EC50 stood at 90.4 nM and the “Cellular Reporter Assay Amax” value was found to be 5.5.

In the case of `CC1(C)C=C(c2ccc3c(c2)N(S(=O)(=O)c2cccc(C(F)(F)F)c2)C[C@@H]2CN(C4COC4)CCN32)CC(C)(C)O1` [Example 34, (S)-3-(oxetan-3-yl)-8-(2,2,6,6-tetramethyl-3,6-dihydro-2H-pyran-4-yl)-6-((3-(trifluoro-methyl)phenyl)sulfonyl)-2,3,4,4a,5,6-hexahydro-1H-pyrazino[1,2-a]quinoxaline], on RORγt-LBD, the EC50 worked out at 3.91 nM and the “TR-FRET Biochemical Amax” value was 1.11. Also, on RORγt, the EC50 turned out to be 156 nM and the “Cellular Reporter Assay Amax” value was determined as 1.7.

As for `O=C(O)CN1CCN2c3ccc(/C=C/c4c(Cl)cccc4C(F)(F)F)cc3N(S(=O)(=O)c3cccc(C(F)(F)F)c3)C[C@@H]2C1` [Example 20, (S,E)-2-(8-(2-chloro-6-(trifluoro-methyl)styryl)-6-((3-(tri-fluoromethyl)phenyl)sulfonyl)-1,2,4,4a,5,6-hexahydro-3H-pyrazino[1,2-a]quinoxalin-3-yl)acetic acid], on RORγt-LBD, the EC50 was determined as 32 nM and the “TR-FRET Biochemical Amax” value is 1.01. Further, on RORγt, the EC50 was 418 nM and the “Cellular Reporter Assay Amax” value came to 6.3.

Regarding `C/C(=C\c1ccc2c(c1)N(S(=O)(=O)c1cccc(C(F)(F)F)c1)C[C@@H]1CN(C(N)=O)CCN21)c1c(F)cccc1Cl` [Example 62, (S,E)-8-(2-(2-chloro-6-fluoro-phenyl)prop-1-en-1-yl)-6-((3-(trifluoromethyl)phenyl)sulfo-nyl)-1,2,4,4a,5,6-hexahydro-3H-pyrazino[1,2-a]quinoxa-line-3-carboxamide], on RORγt-LBD, the EC50 came out at 25.2 nM and the “TR-FRET Biochemical Amax” value is given as 0.69. Besides, at RORγt, the EC50 was determined as 297 nM and the “Cellular Reporter Assay Amax” value was 3.8.

With `C/C(=C\c1ccc2c(c1)N(S(=O)(=O)c1cccc(C(F)(F)F)c1)C[C@H](CCC(=O)O)N2C)c1c(F)cccc1Cl` [Example 3, (S,E)-3-(6-(2-(2-chloro-6-fluorophenyl)prop-1-en-1-yl)-1-methyl-4-((3-(trifluoromethyl)phenyl)sulfonyl)-1,2,3,4-tetrahydroquinoxalin-2-yl)propanoic acid], at RORγt-LBD, the EC50 came out at 29.1 nM and the “TR-FRET Biochemical Amax” value is given as 1.20. On RORγt, the EC50 worked out at 1740 nM and the “Cellular Reporter Assay Amax” value was determined as 4.4.

Turning to `CC(C)(C(=O)O)N1CCN2c3ccc(-c4cc(F)cc(OC(F)F)c4)cc3N(S(=O)(=O)c3cccc(C(F)(F)F)c3)C[C@@H]2C1` [Example 54, (S)-2-(8-(3-(difluoromethoxy)-5-fluorophenyl)-6-((3-(trifluoromethyl)phenyl)sulfonyl)-1,2,4,4a,5,6-hexahydro-3H-pyrazino[1,2-a]quinoxalin-3-yl)-2-methylpropanoic acid], on RORγt-LBD, the EC50 was found to be 20.1 nM and the “TR-FRET Biochemical Amax” value worked out at 0.72. For the same compound, at RORγt, the EC50 was 297 nM and the “Cellular Reporter Assay Amax” value is on record as 3.9.

On to `O=S1(=O)CCN2c3ccc(-c4cc(F)cc(OC(F)F)c4)cc3N(S(=O)(=O)c3cccc(C(F)(F)F)c3)CC2C1` (centres unmarked) [Example 102, 8-(3-(difluoromethoxy)-5-fluorophenyl)-6-((3-(trifluoromethyl)phenyl)sulfonyl)-1,2,4,4a,5,6-hexahydro-[1,4]thiazino[4,3-a]quinoxaline 3,3-dioxide], for which the values for the EC50 at RORγt-LBD and at RORγt were 809 nM and 2150 nM, respectively.

With `O=C(O)CN1CCN2c3ccc(-c4cc(F)cc(OC(F)F)c4)cc3N(S(=O)(=O)c3cccc(C(F)(F)F)c3)C[C@@H]2C1` [Example 9, (S)-2-(8-(3-(difluoromethoxy)-5-fluorophenyl)-6-((3-(trifluoromethyl)phenyl)sulfonyl)-1,2,4,4a,5,6-hexahydro-3H-pyrazino[1,2-a]quinoxalin-3-yl)acetic acid], on RORγt-LBD, the EC50 amounted to 11.6 nM and the “TR-FRET Biochemical Amax” value is 0.63. For the same compound, on RORγt, the EC50 was 290 nM and the “Cellular Reporter Assay Amax” value amounted to 3.5.

For the compound `N#Cc1cccc(-c2ccc3c(c2)N(S(=O)(=O)c2cccc(C(F)(F)F)c2)C[C@@H]2CN(CC(=O)O)CCN32)c1F` [Example 94, (S)-2-(8-(3-cyano-2-fluorophenyl)-6-((3-(trifluoromethyl)phenyl)sulfonyl)-1,2,4,4a,5,6-hexahydro-3H-pyrazino[1,2-a]quinoxalin-3-yl)acetic acid], at RORγt-LBD, the EC50 was 159 nM and the “TR-FRET Biochemical Amax” value stood at 0.27. Further, on RORγt, the EC50 is 3550 nM and the “Cellular Reporter Assay Amax” value was determined as 1.8.

As to `CC(=O)N1CCN2c3ccc(-c4cc(F)cc(OC(F)F)c4)cc3N(S(=O)(=O)c3cccc(C(F)(F)F)c3)C[C@@H]2C1` [Example 7, (S)-1-(8-(3-(difluoromethoxy)-5-fluorophenyl)-6-((3-(trifluoromethyl)phenyl)sulfonyl)-1,2,4,4a,5,6-hexahydro-3H-pyrazino[1,2-a]quinoxalin-3-yl)ethan-1-one], on RORγt-LBD, the EC50 turned out to be 17.5 nM and the “TR-FRET Biochemical Amax” value is listed as 1.45. Besides, on RORγt, the EC50 is 145 nM and the “Cellular Reporter Assay Amax” value turned out to be 3.7.

For the compound `NC(=O)N1CCN2c3ccc(-c4cc(F)cc(OC(F)F)c4)cc3N(S(=O)(=O)c3cccc(C(F)(F)F)c3)C[C@@H]2C1` [Example 61, (S)-8-(3-(difluoromethoxy)-5-fluorophenyl)-6-((3-(trifluoro-methyl)phenyl)sulfonyl)-1,2,4,4a,5,6-hexahydro-3H-pyra-zino[1,2-a]quinoxaline-3-car-boxamide], at RORγt-LBD, the EC50 was 86 nM and the “TR-FRET Biochemical Amax” value worked out at 0.69. In addition, on RORγt, the EC50 was 469 nM and the “Cellular Reporter Assay Amax” value was determined as 3.0.

Regarding `COc1ncc(C(F)(F)F)cc1S(=O)(=O)N1C[C@@H]2CN(CC(=O)O)CCN2c2ccc(-c3cc(F)cc(OC(F)F)c3)cc21` [Example 93, (S)-2-(8-(3-(difluoromethoxy)-5-fluorophenyl)-6-((2-methoxy-5-(trifluoromethyl)pyridin-3-yl)sulfonyl)-1,2,4,4a,5,6-hexahydro-3H-pyrazino[1,2-a]quinoxalin-3-yl)acetic acid], at RORγt-LBD, the EC50 came out at 46.4 nM and the “TR-FRET Biochemical Amax” value is given as 0.51. Also, on RORγt, the EC50 amounted to 264 nM and the “Cellular Reporter Assay Amax” value is recorded as 2.1.

Take `C[C@@]1(O)CCN2c3ccc(-c4cc(F)cc(OC(F)F)c4)cc3N(S(=O)(=O)c3cccc(C(F)(F)F)c3)C[C@@H]2C1` [Example 107, (6aS,8R)-3-(3-(difluoromethoxy)-5-fluorophenyl)-8-methyl-5-((3-(trifluoromethyl)phenyl)sulfonyl)-6,6a,7,8,9,10-hexahydro-5H-pyrido[1,2-a]quinoxalin-8-ol]: on RORγt-LBD, the EC50 was determined as 98.3 nM and the “TR-FRET Biochemical Amax” value stood at 1.31. For the same compound, at RORγt, the EC50 is 643 nM and the “Cellular Reporter Assay Amax” value is 3.0.

On to `O=S(=O)(c1cccc(C(F)(F)F)c1)N1C[C@@H]2CNCCN2c2ccc(-c3cc(F)cc(OC(F)F)c3)cc21` [Example 12, (S)-8-(3-(difluoromethoxy)-5-fluorophenyl)-6-((3-(trifluoromethyl)phenyl)sulfonyl)-2,3,4,4a,5,6-hexa-hydro-1H-pyrazino[1,2-a]quinoxaline], for which, at RORγt-LBD, the EC50 amounted to 136 nM and the “TR-FRET Biochemical Amax” value worked out at 0.67. On RORγt, the EC50 was 2390 nM and the “Cellular Reporter Assay Amax” value was determined as 4.3.
